Results as given in article PMC10384562, “Synthesis and Structure Determination of Substituted Thiazole Derivatives as EGFR/BRAF^V600E Dual Inhibitors Endowed with Antiproliferative Activity” (Pharmaceuticals, 2023).
Like-named read-outs stand apart in the source and are kept apart here.

How the values were obtained:
[1] = Cell viability assay (MTT) on normal mammary epithelial cells; details: human, MCF-10A mammary gland epithelial cells
[2] = test system: breast cancer (MCF-7) cell line; assay: Antiproliferative assay, MCF-7; format: cell-based; details: Homo sapiens, MCF7; MCF-7 breast cancer cells; read-out: Antiproliferative Activity IC50 ± SEM, MCF-7
Experimental: (§1) 4.2.1.2. Assay for antiproliferative effect
(§2) To explore the antiproliferative potential of compounds propidium iodide fluorescence assay was performed using different cell lines such as Panc-1 (pancreas cancer cell line), MCF-7 (breast cancer cell line), HT-29 (colon cancer cell line) and A-549 (epithelial cancer cell line), respectively. To calculate the total nuclear DNA, a fluorescent dye (propidium iodide, PI) is used which can attach to the DNA, thus offering a quick and precise technique. PI cannot pass through the cell membrane and its signal intensity can be considered as directly proportional to quantity of cellular
(§3) DNA. Cells whose cell membranes are damaged or have changed permeability are counted as dead ones. The assay was performed by seeding the cells of different cell lines at a density of 3000-7500 cells/well (in200μl medium) in culture plates followed by incubation for 24h at 37 °C in humidified 5%CO2/95% air atmospheric conditions.
(§4) The medium was removed; the compounds were added to the plates at 10 μM concentrations (in 0.1% DMSO) in triplicates, followed by incubation for 48h. DMSO (0.1%) was used as control. After incubation, medium was removed followed by the addition of PI (25 μl, 50μg/mL in water/medium) to each well of the plates. At -80 °C, the plates were allowed to freeze for 24 h, followed by thawing at 25 °C. A fluorometer (Polar-Star BMG Tech) was used to record the readings at excitation and emission wavelengths of 530 and 620 nm for each well. The percentage cytotoxicity of compounds was calculated using the following formula:
(§5) Where ATC= Absorbance of treated cells and AC= Absorbance of control. Erlotinib was used as positive control in the assay.

[3] = test system: pancreatic cancer (Panc-1) cell line; assay: Antiproliferative assay, Panc-1; format: cell-based; details: Homo sapiens; Panc-1 pancreatic cancer cells; read-out: Antiproliferative Activity IC50 ± SEM, Panc-1
Experimental: as §1, §2, §3, §4, §5

BRAF^V600E = target: T1, BRAF^V600E (Mus musculus, UniProt P28028, V585E); assay: BRAF^V600E inhibitory assay; format: biochemical; details: read-out: BRAF^V600E Inhibition IC50 ± SEM
T1 construct: Mouse full-length GST-tagged BRAFV600E (7.5 ng,; GST; purchased Invitrogen PV3849
T1 sequence (P28028 whole entry V585E): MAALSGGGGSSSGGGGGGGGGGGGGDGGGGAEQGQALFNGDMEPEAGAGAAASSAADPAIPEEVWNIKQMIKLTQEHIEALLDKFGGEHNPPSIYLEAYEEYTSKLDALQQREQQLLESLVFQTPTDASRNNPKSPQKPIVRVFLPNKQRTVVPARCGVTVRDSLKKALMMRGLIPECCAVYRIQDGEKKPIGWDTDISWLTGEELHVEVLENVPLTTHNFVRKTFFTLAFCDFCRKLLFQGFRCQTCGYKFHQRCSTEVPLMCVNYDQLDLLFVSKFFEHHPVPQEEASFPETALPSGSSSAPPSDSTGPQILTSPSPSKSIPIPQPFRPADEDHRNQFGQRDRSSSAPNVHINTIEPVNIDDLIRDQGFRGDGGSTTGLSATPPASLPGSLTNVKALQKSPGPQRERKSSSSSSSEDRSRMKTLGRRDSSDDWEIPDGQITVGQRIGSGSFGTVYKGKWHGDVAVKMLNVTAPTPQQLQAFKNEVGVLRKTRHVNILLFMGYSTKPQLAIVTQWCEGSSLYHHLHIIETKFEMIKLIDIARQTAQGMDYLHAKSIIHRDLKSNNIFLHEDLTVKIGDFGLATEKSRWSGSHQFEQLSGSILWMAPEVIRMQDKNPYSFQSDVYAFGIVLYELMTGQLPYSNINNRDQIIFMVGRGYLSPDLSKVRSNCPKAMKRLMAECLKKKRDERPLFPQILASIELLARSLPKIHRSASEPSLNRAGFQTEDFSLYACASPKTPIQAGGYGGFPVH
Experimental: See Supplementary Information. […]
4.2.3. BRAFV600E inhibitory assay
V600E mutant BRAF kinase assay was performed to investigate the activity of tested compounds against BRAF. Mouse full-length GST-tagged BRAFV600E (7.5 ng, Invitrogen, PV3849) was pre-incubated with drug (1 µL) and assay dilution buffer (4 µL) for 60 min at 25 °C. In assay dilution buffer, a solution (5 µL) containing MgCl2 (30 mM), ATP (200 µM), recombinant human full length (200 ng) […] N-terminal His-tagged MEK1 (Invitrogen) was added to start the assay, subsequent to incubation for 25 min at 25 °C. The assay was stopped using 5X protein denaturing buffer (LDS) solution (5 µL). To further denature the protein, heat (70° C) was applied for 5 min. 4- […]
200 V). 10 µL of each reaction was loaded into the precast plates and electrophoresis was allowed to proceed. After completion of electrophoresis, the front part of the precast gel plate (holding hot ATP) was cut and afterwards cast-off. The dried gel was developed using a phosphor screen. A reaction without active enzyme was used as negative control while that containing no inhibitor served as positive control. […]
4.3. Statistical analysis
Computerized Prism 5 program was used to statistically analyzed data using one-way ANOVA test followed by Tukey’s as post ANOVA for multiple comparison at P ≤.05.
Data were presented as mean ± SEM.

[4] = test system: four human cancer cell lines (A-549, MCF-7, Panc-1, HT-29); assay: Antiproliferative assay, average over four cancer cell lines (GI50); format: cell-based; details: for IC50: average IC50 (GI50) over A-549, MCF-7, Panc-1, HT-29; for fold less potent than compound 3f (GI50): ratio of GI50 to that of 3f
Experimental: as §1
To explore the antiproliferative potential of compounds propidium iodide fluorescence assay was performed using different cell lines such as Panc-1 (pancreas cancer cell […]
(epithelial cancer cell line), respectively. To calculate the total nuclear DNA, a fluorescent dye (propidium iodide, PI) is used which can attach to the DNA, thus offering a quick and precise technique. PI cannot pass through the cell membrane and its signal intensity can be considered as directly proportional to quantity of cellular
DNA. Cells whose cell membranes are damaged or have changed permeability are counted as dead ones. The assay was performed by seeding the cells of different cell lines at a density of 3000-7500 cells/well (in200μl medium) in culture plates followed […]
as §4
Where ATC= Absorbance of treated cells and AC= Absorbance of control. […]
was used as positive control in the assay.
(§6) (1 picture or pasted object on this page, not shown here)

[5] = test system: colon cancer (HT-29) cell line; assay: Antiproliferative assay, HT-29; format: cell-based; details: Homo sapiens; HT-29 colon cancer cells; read-out: Antiproliferative Activity IC50 ± SEM, HT-29
Experimental: as §1, §2, §3, §4, §5

[6] = test system: lung cancer (A-549) cell line; assay: Antiproliferative assay, A-549; format: cell-based; details: Homo sapiens, A549; A-549 lung cancer cells; read-out: Antiproliferative Activity IC50 ± SEM, A-549
Experimental: as §1, §2, §3, §4, §5, §6

EGFR [7] = target: T2, EGFR (Homo sapiens, UniProt P00533); assay: EGFR-TK inhibitory assay; format: biochemical; details: for fold less potent than erlotinib (EGFR IC50): ratio of EGFR IC50 to that of erlotinib; for IC50: read-out: EGFR Inhibition IC50 ± SEM
T2 construct: CD, amino acids 645–1186); His6 (N); made in house; host or cells: Sf-9 insect cells (baculovirus; pBlueBacHis2B / pFASTBacHTc
T2 sequence (P00533 669-1210): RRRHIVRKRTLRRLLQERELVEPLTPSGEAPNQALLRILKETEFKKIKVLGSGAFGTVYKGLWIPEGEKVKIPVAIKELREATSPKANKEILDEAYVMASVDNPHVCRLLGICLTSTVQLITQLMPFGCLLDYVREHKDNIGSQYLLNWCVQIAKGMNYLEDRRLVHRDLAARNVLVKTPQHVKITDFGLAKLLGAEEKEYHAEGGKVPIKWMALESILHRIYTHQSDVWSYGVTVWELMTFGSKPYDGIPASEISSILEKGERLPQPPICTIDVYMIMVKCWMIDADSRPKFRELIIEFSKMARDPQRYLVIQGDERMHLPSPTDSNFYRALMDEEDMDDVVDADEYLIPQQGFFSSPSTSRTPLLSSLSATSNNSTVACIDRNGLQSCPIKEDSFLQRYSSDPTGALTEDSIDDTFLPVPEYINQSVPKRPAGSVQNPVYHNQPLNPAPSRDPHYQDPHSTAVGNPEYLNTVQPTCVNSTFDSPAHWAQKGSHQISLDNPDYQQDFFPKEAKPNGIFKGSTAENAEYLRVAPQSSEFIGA
Experimental: 4.2.2. EGFR inhibitory assay
Baculoviral expression vectors including pBlueBacHis2B and pFASTBacHTc were […]
5ʹ upstream to the EGFR sequence comprised a sequence that encoded (His)6. Sf-9 cells were infected for 72h for protein expression. The pellets of Sf-9 cells were solubilized in a buffer containing sodium vanadate (100 μM), aprotinin (10 μg/mL), triton (1%), HEPES buffer(50mM), ammonium molybdate (10 μM), benzamidine HCl (16 μg/mL), NaCl (10 mM),leupeptin (10 μg/mL) and pepstatin (10 μg/mL) at 0°C for 20 min at pH 7.4, followed by centrifugation for 20 min. To eliminate the nonspecifically bound material, a Ni-NTA super flow packed column was used to pass through and wash the crude extract supernatant first with 10mM and then with 100 mM imidazole. Histidine-linked proteins were first eluted with 250 and then with 500 mM imidazole subsequent to dialysis against NaCl (50 mM), HEPES (20 mM), glycerol (10%) and 1 μg/mL each of aprotinin, leupeptin and pepstatin for 120 min. The purification was performed either at 4 °C or on ice. To record autophosphorylation level, EGFR kinase assay was carried out on the basis of DELFIA/Time-Resolved Fluorometry. The compounds were first dissolved in DMSO […]
pH 7.4. Each compound (10 μL) was incubated with recombinant enzyme (10 μL, 5 ng for EGFR, 1:80 dilution in 100 mM HEPES) for 10 min at 25 °C, subsequent to the addition of 5X buffer (10 μL, containing 2 mM MnCl2, 100 μM Na3VO4, 20 mM HEPES and 1 mM DTT) and ATP-MgCl2 (20 μL, containing 0.1 mM ATP and 50 mM MgCl2) and incubation for 1h. The negative and positive controls were included in each plate by the incubation of enzyme either with or without ATP-MgCl2. The liquid was removed after incubation and the plates were washed thrice using wash buffer.
Europium-tagged antiphosphotyrosine antibody (75 μL, 400 ng) was added to each well followed by incubation of 1h and then washing of the plates using buffer. The enhancement solution was added to each well and the signal was recorded at excitation […]
The autophosphorylation percentage inhibition by compounds was calculated using the following equation: […]

in vitro = details: human
[8] = test system: four evaluated cancer cell lines; design: method as in doi:10.1016/j.arabjc.2023.104612; details: ref [36]; read-out: GI50 against the four evaluated cancer cell lines; cited from earlier work
EGFR [9] = target: T2, EGFR; design: method as in doi:10.1016/j.arabjc.2023.104612; details: ref [36]; cited from earlier work

Row | melting point | SMILES | viability at 96 h, 50 µM [1] | IC50 [2] | IC50 [3] | IC50 (BRAF^V600E) | IC50 ([4]; Homo sapiens) | IC50 [5] | IC50 [6] | fold less potent than erlotinib (EGFR IC50) (EGFR [7]) | IC50 (EGFR [7]) | fold less potent than compound 3f (GI50) [4] | viability at 96 h, 50 µM (in vitro) | IC50 [4] | GI50 [8] | IC50 (EGFR [9])
1 |  | CCn1c(C)cs/c1=N\Nc1ccc([N+](=O)[O-])cc1[N+](=O)[O-] [Compound 3b, (Z)-2-(2-(2,4-Dinitrophenyl)Hydrazineylidene)-3-Ethyl-4-Methyl-2,3-Dihydrothiazole] |  | 82 ± 8 nM | 80 ± 8 nM |  | 80 nM | 80 ± 8 nM | 78 ± 7 nM |  |  | 2.2 fold | 91% |  |  | 
2 |  | Cc1cs/c(=N/Nc2ccc([N+](=O)[O-])cc2[N+](=O)[O-])n1C1CCCCC1 [Compound 3d, (Z)-3-Cyclohexyl-2-(2-(2,4-Dinitrophenyl)Hydrazineylidene)-4-Methyl-2,3-Dihydrothi-Azole] | 92% | 47 ± 4 nM | 46 ± 4 nM | 112 ± 10 nM | 46 nM | 46 ± 4 nM | 43 ± 4 nM | 1.15 fold | 91 ± 7 nM | 1.3 fold |  |  |  | 
3 |  | Cc1cs/c(=N\Nc2ccc([N+](=O)[O-])cc2[N+](=O)[O-])n1-c1ccccc1 [Compound 3e, (Z)-2-(2-(2,4-Dinitrophenyl)Hydrazineylidene)-4-Methyl-3-Phenyl-2,3-Dihydrothiazole] |  | 74 ± 7 nM | 72 ± 7 nM |  | 72 nM | 72 ± 7 nM | 71 ± 7 nM |  |  | 2 fold | 87% |  |  | 
4 |  | Cc1ccc(-n2c(C)cs/c2=N/Nc2ccc([N+](=O)[O-])cc2[N+](=O)[O-])cc1 [Compound 3f, (Z)-2-(2-(2,4-Dinitrophenyl)Hydrazineylidene)-4-Methyl-3-(p-Tolyl)-2,3-Dihydrothi-Azole] |  | 40 ± 3 nM | 37 ± 3 nM | 93 ± 8 nM | 37 nM | 37 ± 3 nM | 35 ± 3 nM | 1.1 fold | 89 ± 7 nM |  | 89% |  |  | 
5 | 193 to 194 °C | Cc1ccc(S(=O)(=O)N/N=c2\scc(C)n2-c2ccccc2)cc1 [Compound 3g, (Z)-4-Methyl-N′-(4-Methyl-3-Phenylthiazol-2(3H)-Ylidene) Benzenesulfonohydrazide] | 90% | 63 ± 6 nM | 60 ± 6 nM |  | 60 nM | 58 ± 5 nM | 58 ± 5 nM |  |  |  |  |  |  | 
6 | 236 to 238 °C | C=CCn1c(C)cs/c1=N\NS(=O)(=O)c1ccc(C)cc1 [Compound 3h, (Z)-N′-(3-Allyl-4-Methylthiazol-2(3H)-Ylidene)-4-Methyl Benzenesulfonohydrazide] | 92% | 68 ± 6 nM | 65 ± 6 nM |  | 65 nM | 65 ± 6 nM | 63 ± 6 nM |  |  |  |  |  |  | 
7 | 236 to 238 °C | CCn1c(C)cs/c1=N\NS(=O)(=O)c1ccc(C)cc1 [Compound 3i, (Z)-N′-(3-Ethyl-4-Methylthiazol-2(3H)-Ylidene)-4-Methyl Benzenesulfonohydrazide] | 95% | 89 ± 8 nM | 86 ± 8 nM |  | 86 nM | 86 ± 8 nM | 84 ± 8 nM |  |  |  |  |  |  | 
8 |  | COc1cccc(-n2c(-c3ccccc3)cs/c2=N\c2c[nH]c(=O)[nH]c2=O)c1 [Compound V] |  |  |  |  |  |  |  |  |  |  |  |  | 900 nM | 74 ± 7 nM
9 |  | C#Cc1cccc(Nc2ncnc3cc(OCCOC)c(OCCOC)cc23)c1 [Erlotinib, reference compound] |  | 40 ± 3 nM | 30 ± 3 nM |  |  | 30 ± 3 nM | 30 ± 3 nM |  |  |  |  |  |  | 

Row | SMILES | melting point | viability at 96 h, 50 µM [1] | IC50 [2] | IC50 [3] | IC50 (BRAF^V600E) | IC50 ([4]; Homo sapiens) | IC50 [5] | IC50 [6] | fold less potent than erlotinib (EGFR IC50) (EGFR [7]) | IC50 (EGFR [7]) | fold less potent than compound 3f (GI50) [4] | viability at 96 h, 50 µM (in vitro) | IC50 [4] | GI50 [8] | IC50 (EGFR [9])
10 | Cc1cs/c(=N\Nc2ccc([N+](=O)[O-])cc2[N+](=O)[O-])n1Cc1ccccc1 [Compound 3a, (Z)-3-Benzyl-2-(2-(2,4-Dinitrophenyl)Hydrazineylidene)-4-Methyl-2,3-Dihydrothiazole] | 215 to 217 °C | 89% | 49 ± 4 nM | 48 ± 4 nM | 117 ± 10 nM | 48 nM | 48 ± 4 nM | 45 ± 4 nM | 1.15 fold | 93 ± 8 nM |  |  |  |  | 
11 | C=CCn1c(C)cs/c1=N\Nc1ccc([N+](=O)[O-])cc1[N+](=O)[O-] [Compound 3c, (Z)-3-Allyl-2-(2-(2,4-Dinitrophenyl)Hydrazineylidene)-4-Methyl-2,3-Dihydrothiazole] | 197 to 198 °C | 90% | 56 ± 5 nM | 54 ± 5 nM | 126 ± 11 nM | > 50 nM | 54 ± 5 nM | 50 ± 5 nM |  | 98 ± 9 nM |  |  | 54 nM |  | 
